According to patent US20140288044A1, “COMPOSITIONS AND THERAPEUTIC USES OF IKK-RELATED KINASE EPSILON AND TANKBINDING KINASE 1 INHIBITORS” (Alzheimer's Institute of America, Inc., priority 2011, published 2014):
pIC50: −log10 of the molar value.

tested on: IKKε-mediated phosphorylation of IRF3; assay: ELISA for in-situ phosphorylation of IRF3 (phospho-Ser396) in HEK293T cells cotransfected with IRF3 and IKKε; type: cell-based; conditions: Homo sapiens, HEK-293T, 20 h, HEK293T cells, 20 hours; range given from about 1 μM to about 250 nM; read-out: IC50, in-situ IKKε-mediated phosphorylation of IRF3
Description: HEK293T cells were cotransfected in a 10-cm dish with IRF3 and IKKε expression plasmids using Lipofectamine 2000 (Invitrogen, Carlsbad, Calif.). The following day, cells were replated at 20,000 per well in 96-well plates and treated with test compounds (compounds according to Formulae I and/or II) for 20 hours. Cell lysates were prepared and analyzed using an ELISA for phospho-Ser396 (anti-IRF3 capture antibody, Santa Cruz Biotechnology, Inc., Santa Cruz, Calif.; anti-p-Ser396 IRF3 detection antibody, Cell Signaling, Danvers, Mass.). pIRF3 levels in compound treated cells were normalized to DMSO treated cells (no compound). Cell viability was assayed in a parallel set of plates to monitor cytotoxic effects of the test compounds (CellTiter-Glo, Promega, Inc., Madison, Wis.). TBK1 activity was tested by Western blotting using a phospho-specific IRF7 antibody. Similar to above, HEK293T cells were transfected with IRF7 and TBK1 expression plasmids. Cells were seeded in 12-well plates at 150,000 per well and treated overnight with test compounds. Protein lysates were prepared and processed for Western blotting followed by detection using a phosphor-Ser477/Ser479 IRF7 antibody (BD Biosciences, San Jose, Calif.)

Row | Compound | pIC50
1 | COC1CN(c2cc(Nc3nccc(-c4ccc(NC(=O)C(C)C)c(C#N)c4)n3)ccn2)C1 [Example Compound 247, N-[2-Cyano-4-(2-{[2-(3-methoxyazetidin-1-yl)pyridin-4-yl]amino}pyrimidin-4-yl)phenyl]-2-methylpropanamide] | 6.00 to 6.60
2 | COCCNCc1ccc(Nc2nccc(-c3ccc(OC4CCOCC4)c(C#N)c3)n2)cn1 [Example Compound 50, 5-{2-[(6-{[(2-Methoxyethyl)amino]methyl}pyridin-3-yl)amino]pyrimidin-4-yl}-2-(tetrahydro-2H-pyran-4-yloxy)benzonitrile] | 6.00 to 6.60
3 | Cc1ccc(Nc2nccc(-c3ccc(O[C@@H]4CCN(C(=O)CO)C4)c(C#N)c3)n2)cn1 [Example Compound 118, 2-{[(3R)-1-(Hydroxyacetyl)pyrrolidin-3-yl]oxy}-5-{2-[(6-methylpyridin-3-yl)amino]pyrimidin-4-yl}benzonitrile] | 6.00 to 6.60
4 | COc1cc(-c2ccnc(Nc3ccc(CN4CCC4)nc3)n2)cc(C#N)c1OC1CCOCC1 [Example Compound 115, 5-(2-{[6-(Azetidin-1-ylmethyl)pyridin-3-yl]amino}pyrimidin-4-yl)-3-methoxy-2-(tetrahydro-2H-pyran-4-yloxy)benzonitrile] | 6.00 to 6.60
5 | COCCNc1cc(Nc2nccc(-c3ccc(NC(=O)C4CC4)c(C#N)c3)n2)ccn1 [Example Compound 242, N-{2-Cyano-4-[2-({2-[(2-methoxyethyl)amino]pyridin-4-yl}amino)pyrimidin-4-yl]phenyl}cyclopropanecarboxamide] | 6.00 to 6.60
6 | CN(C)c1ccc(Nc2nccc(-c3ccc(OC4CCN(C(=O)CO)C4)c(C#N)c3)n2)cn1 (centres unmarked) [Example Compound 192, 5-(2-{[6-(Dimethylamino)pyridin-3-yl]amino}pyrimidin-4-yl)-2-{[1-(hydroxyacetyl)pyrrolidin-3-yl]oxy}benzonitrile] | 6.00 to 6.60
7 | CN1CCN(c2ccc(Nc3nccc(-c4ccc(OC5CCOCC5)c(C#N)c4)n3)nn2)CC1 [Example Compound 85, 5-(2-{[6-(4-Methylpiperazin-1-yl)pyridazin-3-yl]amino}pyrimidin-4-yl)-2-(tetrahydro-2H-pyran-4-yloxy)benzonitrile] | 6.00 to 6.60
8 | N#Cc1cc(-c2ccnc(Nc3ccnc(C(F)(F)F)c3)n2)ccc1O[C@@H]1CCN(C(=O)CO)C1 [Example Compound 122, 2-{[(3R)-1-(Hydroxyacetyl)pyrrolidin-3-yl]oxy}-5-(2-{[2-(trifluoromethyl)pyridin-4-yl]amino}pyrimidin-4-yl)benzonitrile] | 6.00 to 6.60
9 | COC1CN(C(=O)c2cncc(Nc3nccc(-c4ccc(OC5CCOCC5)c(C#N)c4)n3)c2)C1 [Example Compound 171, 5-[2-({5-[(3-Methoxyazetidin-1-yl)carbonyl]pyridin-3-yl}amino)pyrimidin-4-yl]-2-(tetrahydro-2H-pyran-4-yloxy)benzonitrile] | 6.00 to 6.60

same assay, conditions: Homo sapiens, HEK-293T, 20 h, HEK293T cells, 20 hours; read-out: IC50, in-situ IKKε-mediated phosphorylation of IRF3

Row | Compound | pIC50
10 | COC1CN(C(=O)c2ccc(Nc3nccc(-c4ccc(OC5CCOCC5)c(C#N)c4)n3)cn2)C1 [Example Compound 31, 5-[2-({6-[(3-Methoxyazetidin-1-yl)carbonyl]pyridin-3-yl}amino)pyrimidin-4-yl]-2-(tetrahydro-2H-pyran-4-yloxy)benzonitrile] | 6.60 to 7.00
11 | COC1CN(C(C)c2ccc(Nc3nccc(-c4ccc(OC5CCOCC5)c(C#N)c4)n3)cn2)C1 (centres unmarked) [Example Compound 234, 5-[2-({6-[1-(3-Methoxyazetidin-1-yl)ethyl]pyridin-3-yl}amino)pyrimidin-4-yl]-2-(tetrahydro-2H-pyran-4-yloxy)benzonitrile] | 6.60 to 7.00
12 | COC1CCN(c2cc(Nc3nccc(-c4ccc(OC5CCOCC5)c(C#N)c4)n3)ccn2)C1 (centres unmarked) [Example Compound 181, 5-(2-{[2-(3-Methoxypyrrolidin-1-yl)pyridin-4-yl]amino}pyrimidin-4-yl)-2-(tetrahydro-2H-pyran-4-yloxy)benzonitrile] | 5.30 to 6.00
13 | N#Cc1cc(-c2ccnc(Nc3cncc(C(=O)N4CCOCC4)c3)n2)ccc1OC1CCOCC1 [Example Compound 172, 5-(2-{[5-(Morpholin-4-ylcarbonyl)pyridin-3-yl]amino}pyrimidin-4-yl)-2-(tetrahydro-2H-pyran-4-yloxy)benzonitrile] | 5.30 to 6.00
14 | CN1CCN(C(=O)c2ncc(Nc3nccc(-c4ccc(OC5CCOCC5)c(C#N)c4)n3)n2C)CC1 [Example Compound 103, 5-[2-({1-Methyl-2-[(4-methylpiperazin-1-yl)carbonyl]-1H-imidazol-5-yl}amino)pyrimidin-4-yl]-2-(tetrahydro-2H-pyran-4-yloxy)benzonitrile] | > 7.00
15 | CC(C)C(=O)Nc1ccc(-c2ccnc(Nc3ccnc(N4CC(O)C4)c3)n2)cc1C#N [Example Compound 246, N-[2-Cyano-4-(2-{[2-(3-hydroxyazetidin-1-yl)pyridin-4-yl]amino}pyrimidin-4-yl)phenyl]-2-methylpropanamide] | 5.30 to 6.00
16 | CNCc1cncc(Nc2nccc(-c3ccc(OC4CCOCC4)c(C#N)c3)n2)c1 [Example Compound 202, 5-[2-({5-[(Methylamino)methyl]pyridin-3-yl}amino)pyrimidin-4-yl]-2-(tetrahydro-2H-pyran-4-yloxy)benzonitrile] | 6.60 to 7.00
17 | Cc1ccc(Nc2nccc(-c3ccc(OC4CCN(C(=O)[C@H](C)O)CC4)c(C#N)c3)n2)c[n+]1[O-] [Example Compound 235, 2-({1-[(2S)-2-Hydroxypropanoyl]piperidin-4-yl}oxy)-5-{2-[(6-methyl-1-oxidopyridin-3-yl)amino]pyrimidin-4-yl}benzonitrile] | 5.30 to 6.00
18 | N#Cc1cc(-c2ccnc(Nc3cncc(CN4CCN(CCO)CC4)c3)n2)ccc1OC1CCOCC1 [Example Compound 186, 5-{2-[(5-{[4-(2-Hydroxyethyl)piperazin-1-yl]methyl}pyridin-3-yl)amino]pyrimidin-4-yl}-2-(tetrahydro-2H-pyran-4-yloxy)benzonitrile] | 5.30 to 6.00
19 | CN(C)c1ccc(Nc2nccc(-c3ccc(O[C@@H]4CCN(C(=O)CO)C4)c(C#N)c3)n2)cn1 [Example Compound 124, 5-(2-{[6-(Dimethylamino)pyridin-3-yl]amino}pyrimidin-4-yl)-2-{[1-(hydroxyacetyl)pyrrolidin-3-yl]oxy}benzonitrile] | 6.60 to 7.00
20 | Cn1cc(Nc2nccc(-c3ccc(OC4CCOCC4)c(C#N)c3)n2)cn1 [Example Compound 97, 5-{2-[(1-Methyl-1H-pyrazol-4-yl)amino]pyrimidin-4-yl}-2-(tetrahydro-2H-pyran-4-yloxy)benzonitrile] | 5.30 to 6.00
21 | N#Cc1cc(-c2ccnc(Nc3ccc(N4CCOCC4)nc3)n2)ccc1OC1CCOCC1 [Example Compound 6, 5-(2-{[6-(Morpholin-4-yl)pyridin-3-yl]amino}pyrimidin-4-yl)-2-(tetrahydro-2H-pyran-4-yloxy)benzonitrile] | 6.60 to 7.00
22 | Cc1nccn1-c1ccc(Nc2nccc(-c3ccc(OC4CCOCC4)c(C#N)c3)n2)cn1 [Example Compound 73, 5-(2-{[6-(2-Methyl-1H-imidazol-1-yl)pyridin-3-yl]amino}pyrimidin-4-yl)-2-(tetrahydro-2H-pyran-4-yloxy)benzonitrile] | > 7.00
23 | N#Cc1cc(-c2ccnc(Nc3ccnc(C(=O)N4CCCC4)c3)n2)ccc1OC1CCN(C(=O)CO)CC1 [Example Compound 233, 2-{[1-(Hydroxyacetyl)piperidin-4-yl]oxy}-5-(2-{[2-(pyrrolidin-1-ylcarbonyl)pyridin-4-yl]amino}pyrimidin-4-yl)benzonitrile] | 5.30 to 6.00
24 | COc1cc(-c2ccnc(Nc3ccc(CN4CC(OC)C4)nc3)n2)cc(C#N)c1OC1CCOCC1 [Example Compound 116, 3-Methoxy-5-[2-({6-[(3-methoxyazetidin-1-yl)methyl]pyridin-3-yl}amino)pyrimidin-4-yl]-2-(tetrahydro-2H-pyran-4-yloxy)benzonitrile] | 6.60 to 7.00
25 | CN(C)Cc1cncc(Nc2nccc(-c3ccc(OC4CCOCC4)c(C#N)c3)n2)c1 [Example Compound 201, 5-[2-({5-[(Dimethylamino)methyl]pyridin-3-yl}amino)pyrimidin-4-yl]-2-(tetrahydro-2H-pyran-4-yloxy)benzonitrile] | 6.60 to 7.00
26 | N#Cc1cc(-c2ccnc(Nc3ccc(N4CCC(N5CCOCC5)C4)nn3)n2)ccc1OC1CCOCC1 (centres unmarked) [Example Compound 177, 5-[2-({6-[3-(Morpholin-4-yl)pyrrolidin-1-yl]pyridazin-3-yl}amino)pyrimidin-4-yl]-2-(tetrahydro-2H-pyran-4-yloxy)benzonitrile] | 5.30 to 6.00
27 | N#Cc1cc(-c2ccnc(Nc3ccc(N4CCOCC4)cn3)n2)ccc1OC1CCOCC1 [Example Compound 216, 5-(2-{[5-(Morpholin-4-yl)pyridin-2-yl]amino}pyrimidin-4-yl)-2-(tetrahydro-2H-pyran-4-yloxy)benzonitrile] | 5.30 to 6.00
28 | CN(C)c1ccc(Nc2nccc(-c3ccc(OC4CCOCC4)c(C#N)c3)n2)cn1 [Example Compound 152, 5-(2-{[6-(Dimethylamino)pyridin-3-yl]amino}pyrimidin-4-yl)-2-(tetrahydro-2H-pyran-4-yloxy)benzonitrile] | 6.60 to 7.00
29 | CCN(CC)c1ccc(Nc2nccc(-c3ccc(OC4CCOCC4)c(C#N)c3)n2)cn1 [Example Compound 153, 5-(2-{[6-(Diethylamino)pyridin-3-yl]amino}pyrimidin-4-yl)-2-(tetrahydro-2H-pyran-4-yloxy)benzonitrile] | 6.60 to 7.00
